{
  "source": "patent US5827895A",
  "about": "“Hexahydrolupulones useful as anticancer agents” (Regents of the University of Minnesota, priority 1996, dated 1998)",
  "assay_in_all_cases": "microbe, parasite or virus in culture",
  "type_in_all_cases": "cell-based, M. tuberculosis",
  "key": {"[1]": {"tested_on": "Pyrazinamide Resistant TB", "conditions": "Mycobacterium tuberculosis, read-out: inhibition of Pyrazinamide Resistant TB growth"}, "Isoniazid Resistant TB": {"tested_on": "Isoniazid Resistant TB", "conditions": "Mycobacterium tuberculosis, read-out: inhibition of Isoniazid Resistant TB growth"}, "[2]": {"tested_on": "Isoniazid and Rifampin Resistant TB", "conditions": "Mycobacterium tuberculosis, read-out: inhibition of Isoniazid and Rifampin Resistant TB"}},
  "data": [
    {"smiles": "CC(C)CCC1=C(O)C(C(=O)C(C)C)=C(O)C(CCC(C)C)(CCC(C)C)C1=O", "note": "[HHC, hexahydrocolupulone]", "values": [
      {"measurement": "inhibition at 75 µM", "setting": "[1]", "result": 98, "unit": "%"},
      {"measurement": "inhibition at 75 µM", "setting": "Isoniazid Resistant TB", "result": 91, "unit": "%"},
      {"measurement": "inhibition at 75 µM", "setting": "[2]", "result": 92, "unit": "%"}
    ]}
  ]
}
